The values below are quoted from earlier work in patent publication US8455540B2, “Gossypol and apogossypol derivatives, preparation thereof and uses thereof” (Universite du Maine (Le Mans), priority 2007, dated 2013).

Series [1] has as its system proteins of the Bcl-2 family. The settings on record: compared with gossypol (apogossypol = deformylated gossypol).
A further series concerns various types of cancers. As to conditions: compared with gossypol (apogossypol = deformylated gossypol).

On to `Cc1cc2c(C(C)C)c(O)c(O)cc2c(O)c1-c1c(C)cc2c(C(C)C)c(O)c(O)cc2c1O` [apogossypol], for which, in series [1], the “activity on proteins of the Bcl-2 family” value is on record as “fully retains its activity”. The “activity on various types of cancers” value in the series with various types of cancers is recorded as “fully retains its activity”.
